Measured values published in US20240238459A1, “Granzyme-Activatable Membrane-Interacting Peptides and Methods of Use” (priority 2021, published 2024).
Peptide text beside a SMILES is read from it. * marks the point of attachment. DOTA = O=C(O)CN1CCN(CC(=O)O)CCN(CC(=O)*)CCN(CC(=O)O)CC1; Ahx = NCCCCCC(=O)O

Experiments:
recombinant human GZMB = recombinant human GZMB (Homo sapiens, UniProt P10144); assay: Cleavage of GRIP B / ^64Cu-GRIP B by recombinant human GZMB (rad-HPLC); assay type: biochemical; details: incubation with recombinant human GZMB (400 nM per FIG. 2D legend); product comigrated with cold cleaved DOTA-peptide fragment
Sequence of recombinant human GZMB (P10144 21-247): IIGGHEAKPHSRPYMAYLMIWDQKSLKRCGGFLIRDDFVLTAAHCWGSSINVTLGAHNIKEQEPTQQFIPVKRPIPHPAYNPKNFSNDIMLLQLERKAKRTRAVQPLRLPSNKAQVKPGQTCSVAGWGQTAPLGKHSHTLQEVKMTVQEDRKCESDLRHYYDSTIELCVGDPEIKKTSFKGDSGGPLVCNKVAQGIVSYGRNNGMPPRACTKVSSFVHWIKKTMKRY

S. aureus = assay: PET in S. aureus myositis model; assay type: in vivo, mouse
Excerpt: Granzyme B responses to other bacterial strains has also been tested. Live or heat killed S. aureus were implanted into the deltoids of mice to understand immune responses on PET. […] One possibility for the difference in response is that granzyme B is not uniformly employed to attack all pathogens, and the immune cells may customize their granzyme response based on the features of the pathogen.

secreted GZMB = target: T1, secreted GZMB (Mus musculus, UniProt P04187); assay: PET/CT and biodistribution after intratracheal LPS instillation; assay type: in vivo
T1 construct: from tissue; host or cells: live wild type mice; lungs and other organs after intratracheal LPS
T1 sequence (P04187 21-247): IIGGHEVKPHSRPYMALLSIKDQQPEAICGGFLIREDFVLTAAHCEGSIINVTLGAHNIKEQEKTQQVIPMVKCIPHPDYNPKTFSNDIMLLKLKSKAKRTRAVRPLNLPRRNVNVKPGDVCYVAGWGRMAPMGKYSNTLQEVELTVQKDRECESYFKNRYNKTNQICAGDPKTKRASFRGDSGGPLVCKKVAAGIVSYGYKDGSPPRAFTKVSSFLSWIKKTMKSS
Description: Though not well defined, non-cytotoxic functions for secreted GZMB have been proposed in several physiological processes, for example inflammation. To test if ^64Cu-GRIP B can localize potentially pathogenic reservoirs of secreted GZMB due to inflammation, ^64Cu-GRIP B PET/CT was performed on wild type mice that had received intratracheal instillations of lipopolysaccharide (LPS). PET/CT was performed four days after the instillation, a time point at which T cell recruitment to the lungs has occurred. […] Since 3 mg/kg LPS can trigger systemwide T cell activation, radiotracer uptake was examined in a larger panel of mouse organs. […] Remarkably, the systemwide impact on T cell activation due to the intratracheal instillation of LPS was also visually obvious by comparing maximum intensity projections between treatment arms (FIG. 6, panel E).

virus = assay: PET and biodistribution in viral pneumonia model; details: biodistribution; including spleen, liver and blood pool
Description: In collaboration with the Looney lab at UCSF, mice received an intranasal instillation of virus or sham, and were imaged with ^64Cu-GRIP B at 10 days post infection (the time point at which peak recruitment of T cells to the lungs occurs).

EMT6 = assay: Biodistribution in mice bearing EMT6 tumors treated with vehicle or CPI; assay type: in vivo, mouse; details: EMT6 cohort
Description: Next, the biodistribution of ^64Cu-GRIP B and ^64Cu-D-GRIP B was compared in mice bearing MC38 (mouse colorectal cancer) or EMT6 (mouse mammary breast carcinoma) xenografts. The mice were treated with vehicle or anti-PD1 and anti-CTLA4 CPIs following the schema used for the CT26 cohort.

CT26 tumors = assay: Biodistribution in germline GZMB knockout mice bearing CT26 tumors, vehicle or CPI; assay type: in vivo, mouse
Description: Lastly, to confirm that GZMB is responsible for post treatment changes in ^64Cu-GRIP B biodistribution, germline homozygous GZMB knockout mice were inoculated with CT26 tumors and the relative biodistribution of ^64Cu-L-GRIP B in mice was assessed after treatment with vehicle or CPIs.
To confirm this, post treatment changes in tumoral uptake of ^64Cu-GRIP B were assessed for correlation with antitumor effects.

K. pneumoniae = assay: PET in K. pneumoniae myositis model; assay type: in vivo, mouse
Excerpt: Performing additional myositis studies with other bacterial strains yielded unexpected and variable granzyme “responses” on PET. […] In both mouse cohorts, radiotracer uptake in the treated muscles was higher than in the normal muscle.

RAJI tumors = assay: PET/CT in mice bearing RAJI xenografts given anti-CD19 CAR T cells; assay type: in vivo, mouse
Description: Mice bearing subcutaneous RAJI xenografts and administered anti-CD19 CAR T cells were imaged using ^64Cu-GRIP B PET/CT. Peripheral blood mononuclear cells were obtained from normal blood donor leukoreduction filters (Vitalant Blood Services). CD4+ and CD8+ T-cells were isolated via magnetic bead selection, activated with anti-CD3/CD28 beads, lentivirally transduced with a validated anti-CD19 CAR construct, and expanded in vitro with IL-2. In parallel, mice were injected with 1e6 Raji cells subcutaneously in the right flank. At tumor size of ˜400 mm3 5e6 CAR-expressing T-cells were implanted IV into each mouse. Mice received anti-CD19 CAR T cells or empty CAR Ts. After 6 days, the mice received ^64Cu-GRIP B (˜300 uCi/mouse) and were imaged from 0-4 hours post injection. The data depicted in FIG. 7 show images and region of interest analysis gathered at 4 hours post injection.
Additionally, mice bearing orthotopic RAJI xenografts and treated with activated CAR T cell based therapy were imaged using ^64Cu-GRIP B PET/CT. Raji cells (1e5) were administered orthotopically via tail vein injection to encourage seeding in abdominal tissues. This model was evaluated as subcutaneous Raji tumors are known to be intrinsically immunosuppressive.
Peripheral blood mononuclear cells were obtained from normal blood donor leukoreduction filters (Vitalant Blood Services). […]

With `CC[C@H](C)[C@H](NC(=O)[C@H](CCCCN)NC(=O)CNC(=O)[C@H](CC(C)C)NC(=O)[C@H](Cc1ccccc1)NC(=O)[C@H](CCCCN)NC(=O)[C@H](CO)NC(=O)[C@H](Cc1ccccc1)NC(=O)[C@H](Cc1c[nH]c2ccccc12)NC(=O)[C@H](CCC(N)=O)NC(=O)[C@@H](NC(=O)[C@H](Cc1ccccc1)NC(=O)CCCCCNC(=O)CN1CCN(CC(=O)O)CCN(CC(=O)O)CCN(CC(=O)O)CC1)C(C)C)C(=O)N[C@@H](CCC(=O)O)C(=O)N1CCC[C@H]1C(=O)N[C@@H](CC(=O)O)C(=O)N[C@H](C(=O)N[C@@H](CO)C(=O)N[C@@H](CCC(N)=O)C(=O)N[C@H](C(=O)N[C@@H](CCC(N)=O)C(=O)N[C@@H](CC(=O)O)C(=O)N1CCC[C@H]1C(=O)N[C@@H](CC(N)=O)C(=O)N[C@@H](CC(=O)O)C(=O)N[C@@H](CCC(N)=O)C(=O)N[C@@H](Cc1ccc(O)cc1)C(=O)N[C@@H](CCC(=O)O)C(=O)N1CCC[C@H]1C(=O)N[C@@H](Cc1ccccc1)C(=O)O)C(C)C)C(C)C` [^64Cu-GRIP B, metal not drawn] ({DOTA-Ahx}-FVQWFSKFLGKIEPDVSQVQDPNDQYEPF-OH) the “time to conversion to one radiolabeled product” value (recombinant human GZMB) was at most 30 min, the “granzyme B response in live bacterial abscess compared to that of E. coli” value (S. aureus; S. aureus) was “more modest granzyme B response” and the “uptake in live bacterial abscess versus heat killed abscess” value (S. aureus; S. aureus) was “significantly higher”. The “time course of radiotracer uptake” value (S. aureus; S. aureus deltoid implant) was “rising rapidly from 0-6 hours post injection and plateauing from 6-24 hours”, the “autoradiography of the lungs, LPS treated” value (secreted GZMB; co-localized with GZMB and CD3 staining) was “visually higher radiotracer binding” and the “ex vivo biodistribution, LPS treated versus vehicle mice” value (secreted GZMB; either dose, including spleen and thymus) was “significantly higher in numerous tissues”. The “radiotracer accumulation in the lungs, LPS compared to vehicle” value (secreted GZMB; low (0.1 mg/kg) and high (3 mg/kg) doses of LPS, four days after instillation, ROI analysis) was “significantly higher”, the “relative radiotracer uptake per organ, viral infection” value (virus) was “higher radiotracer uptake in numerous tissues” and the “tumoral uptake after CPI compared to controls” value (EMT6) was “significant increase”. For the same compound, the “correlation of tumoral uptake or tumor to blood ratio with percent changes in tumor volume” value (CT26 tumors; GZMB knockout mouse background) was “neither tumoral uptake nor tumor to blood ratio of ^64Cu-GRIP B correlated”, the “post treatment changes in radiotracer uptake in tumors and spleen, CPI compared to vehicle” value (CT26 tumors; germline homozygous GZMB knockout mice, CT26 tumors) was “No significant post treatment changes” and the “uptake in treated muscles versus normal muscle” value (K. pneumoniae) was “higher”. The “uptake in live bacterial infection versus contralateral heat killed bacteria” value (K. pneumoniae; deltoid muscles) was “higher”, the normal tissue biodistribution (biodistribution out to 24 hours post injection) was “highest level of tissue-associated activity in the kidney and liver” and the “dominant mode of clearance” value (intravenous, C57B16/J mice, dynamic PET) was “renal”. The “uptake in tumor bearing livers” value (RAJI tumors; orthotopic RAJI tumors in liver, CD19 CAR Ts, ROI and post mortem dosimetry) was “induce ^64Cu-GRIP B uptake in tumor bearing livers” and the “detection of granzyme B production from activated CAR T cells” value (RAJI tumors; subcutaneous and orthotopic RAJI, anti-CD19 CAR T vs empty CAR Ts, 4 hours post injection) was “can detect granzyme B production from activated CAR T cells”.
